Assay results taken from patent US20250353812A1, “2,6-DIBENZYLIDENECYCLOHEXANONE OXIME COMPOUND AND PREPARATION METHOD THEREFOR AND USE THEREOF” (WENZHOU MEDICAL UNIVERSITY, priority 2022, published 2025).

Experiments:
IL-6 = assay: Inhibition of IL-6 release from J774A.1 macrophages stimulated by LPS (ELISA); assay type: cell-based; conditions: 10 μM compound pretreatment 2 h, then 0.5 μg/mL LPS 22 h, LPS control = 100, FIG. 1
Procedure: (§1) The present invention tested the dose-effect relationship of some of the compounds of Examples in inhibiting the release of IL-6 and TNF-α from J774A.1 macrophages stimulated by LPS. The specific method is as follows: 1.2×10^6 […] macrophages were cultured by DMEM culture solution at 37° C., the culture solution was renewed after 24 h, the tested example compound (at a final concentration of 10 μM) was added for pretreatment for 2 h and then continuously treated by 0.5 μg/mL of LPS for 22 h, the culture solution was collected, and the content of IL-6 and TNF-α was detected by ELISA method. The total protein concentration was measured by collecting cells, the ELISA results were divided by the corresponding total protein concentration and calibrated by the IL-6 and TNF-α content of LPS control group as 100, and the average and error values were calculated.

[1] = test system: liver lipid metabolism of obese mice; assay: Protective effect on liver lipid metabolism of obese mice (high-fat diet); assay type: in vivo; conditions: HFD mice; Example 9 12 mg/kg, Example 2 10 mg/kg, intragastric gavage every two days for 8 weeks
Procedure: (§2) A suspension of 0.5% sodium carboxymethylcellulose and the compounds of Examples was prepared for intragastric administration. The blank control group and the high-fat diet obesity model group were administrated with equal doses of solvent (0.5% CMC-Na solution) intragastrically. The mice were first adaptively raised for 1 week, and when the mice were 8 weeks old, they were randomly divided into 2 groups (A: Con, B: HFD). Group A was fed with normal mouse feed, and mice in group B were fed with 60% high-fat feed for 16 weeks. After the model was successfully established at 12 weeks, the mice in group B were randomly divided into three groups (i: HFD, ii: HFD+Example 9, 12 mg/kg, iii: HFD+Example 2, 10 mg/kg). The body weight of the mice was measured and recorded every week, and groups ii and iii were treated with the compounds of Examples by intragastric gavage every two days for 8 weeks. After 24 weeks, the mice were anesthetized and sacrificed, and blood samples were collected and centrifuged to collect serum for various serum biochemical tests; the liver was removed, and the liver tissue was cut and embedded (frozen and paraffin) for immunohistochemistry and other analyses. The remaining liver tissues were snap frozen in liquid nitrogen and stored in a −80° C. freezer.
The liver lipid metabolism of obese mice is taken as an example. […] It can be clearly seen from the above test results that the compound having the structure of formula I of the present invention has a protective effect on the liver lipid metabolism of obese mice.

TNF-α = assay: Inhibition of TNF-α release from J774A.1 macrophages stimulated by LPS (ELISA); assay type: cell-based; conditions: 10 μM compound pretreatment 2 h, then 0.5 μg/mL LPS 22 h, LPS control = 100, FIG. 2
Procedure: as §1

[2] = test system: liver inflammation in obese mice; assay: Protective effect on liver inflammation in obese mice (high-fat diet); assay type: in vivo; conditions: HFD mice, Example 9 12 mg/kg, intragastric gavage every two days for 8 weeks; for macrophage infiltration in the liver (F4/80 staining) / upregulation of IL-1β gene in mouse liver tissue (mRNA) / upregulation of IL-6 gene in mouse liver tissue (mRNA) / upregulation of TNF-α gene in mouse liver tissue (mRNA): Example 2 10 mg/kg
Procedure: as §2
Taking the compounds of Examples 2 and 9 as examples, the experimental results are shown in FIGS. 3A-3D and FIGS. 4A-4E, where 2 and 9 represent the compounds of Example 2 and Example 9, respectively. Inflammation was assessed by examining macrophage infiltration in the liver using the macrophage-specific marker F4/80 staining. […] In addition, the expression of TNF-α, IL-6 and IL-1β genes in liver tissue was detected.

Compound | inhibitory effect on the release of IL-6 (IL-6) | dyslipidemia caused by high-fat diet feeding (serum triglycerides, low-density lipoprotein cholesterol, total cholesterol) [1] | lipid accumulation in the liver (H&E staining) [1] | lipid accumulation in the liver (oil red staining of frozen sections, quantified) [1] | inhibitory effect on the release of TNF-α (TNF-α) | macrophage infiltration in the liver (F4/80 staining) [2] | upregulation of IL-1β gene in mouse liver tissue (mRNA) [2] | upregulation of IL-6 gene in mouse liver tissue (mRNA) [2] | upregulation of TNF-α gene in mouse liver tissue (mRNA) [2] | degradation of IκB-α in the liver caused by high-fat diet feeding (Western blot) [2]
ON=C1/C(=C/c2ccccc2C(F)(F)F)CCC/C1=C\c1ccccc1C(F)(F)F [Example 9, 2,6-(E,E)-(2-(trifluoromethyl)benzylidene)cyclohexanone oxime] | significant inhibitory effect | significantly alleviated | significantly alleviated | significantly alleviates | significant inhibitory effect | decreased | significantly alleviated | significantly alleviated | significantly alleviated | significantly inhibit
CCCON=C1/C(=C/c2ccccc2C(F)(F)F)CCC/C1=C\c1ccccc1C(F)(F)F [Example 2, 2,6-(E,E)-(2-(trifluoromethyl)benzylidene)cyclohexan-1-one propyl oxime] | significant inhibitory effect | significantly alleviated | significantly alleviated | significantly alleviates | significant inhibitory effect | decreased | significantly alleviated | significantly alleviated | significantly alleviated | –
